The supplement of paper PMC11061612

Tests used:
[1] = system: KOPN-8 (B-Lymphoblastic Leukemia); experiment: combination Emax (second highest fraction inhibited in the dose matrix, 72 h); higher = more inhibition; extreme values may be limits of the assay
Summary of the method: (§1)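 After 24 hours at 37°C and 5% CO2 in 1536-well plates, cells in DMEM/F12 or RPMI plus 10% FBS received two-drug dose matrices for 72 hours. Viability came from CellTiter-Glo 2.0 luminescence and was scaled as inhibition, anchored at 0 by vehicle wells and at 1 by blank wells. Combination Emax is taken as the second-highest inhibition in the matrix, and Bliss excess as the observed combination effect less EA + EB − EA·EB, with EA and EB the single-agent effects.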

[2] = system: NCI-H1838 (Lung Adenocarcinoma); experiment: as above
Summary of the method: as §1

[3] = system: G-401 (Other Solid Carcinomas); experiment: as above
Summary of the method: as §1

[4] = system: EJM (Plasma Cell Myeloma); experiment: as above
Summary of the method: as §1

[5] = system: HCC2998 (Colorectal Carcinoma); experiment: as above
Summary of the method: as §1

[6] = system: NCI-H1092 (Small Cell Lung Carcinoma); experiment: as above
Summary of the method: as §1

[7] = system: LC-1-sq (Squamous Cell Lung Carcinoma); experiment: as above
Summary of the method: as §1

[8] = system: HCC1500 (Breast Carcinoma); experiment: as above
Summary of the method: as §1

EW-1 (Ewing's Sarcoma) [9] = experiment: as above
Summary of the method: as §1

[10] = system: OACM5-1 (Esophageal Adenocarcinoma); experiment: as above
Summary of the method: as §1

Hey (Ovarian Carcinoma) [11] = experiment: as above
Summary of the method: as §1

[12] = system: ALL-SIL (T-Lymphoblastic Leukemia); experiment: as above
Summary of the method: as §1

[13] = system: HCC1937 (Breast Carcinoma); experiment: as above
Summary of the method: as §1

[14] = system: CADO-ES1 (Ewing's Sarcoma); experiment: as above
Summary of the method: as §1

[15] = system: NCI-H2122 (Lung Adenocarcinoma); experiment: as above
Summary of the method: as §1

[16] = system: NCI-H650 (Lung Adenocarcinoma); experiment: as above
Summary of the method: as §1

[17] = system: KOPN-8 (B-Lymphoblastic Leukemia); experiment: Bliss excess, mean over the matrix (fraction); higher = more synergy
Summary of the method: as §1

[18] = system: NCI-H1838 (Lung Adenocarcinoma); experiment: as above
Summary of the method: as §1

[19] = system: G-401 (Other Solid Carcinomas); experiment: as above
Summary of the method: as §1

[20] = system: EJM (Plasma Cell Myeloma); experiment: as above
Summary of the method: as §1

[21] = system: HCC2998 (Colorectal Carcinoma); experiment: as above
Summary of the method: as §1

[22] = system: NCI-H1092 (Small Cell Lung Carcinoma); experiment: as above
Summary of the method: as §1

[23] = system: LC-1-sq (Squamous Cell Lung Carcinoma); experiment: as above
Summary of the method: as §1

[24] = system: HCC1500 (Breast Carcinoma); experiment: as above
Summary of the method: as §1

EW-1 (Ewing's Sarcoma) [25] = experiment: as above
Summary of the method: as §1

[26] = system: OACM5-1 (Esophageal Adenocarcinoma); experiment: as above
Summary of the method: as §1

Hey (Ovarian Carcinoma) [27] = experiment: as above
Summary of the method: as §1

[28] = system: ALL-SIL (T-Lymphoblastic Leukemia); experiment: as above
Summary of the method: as §1

[29] = system: HCC1937 (Breast Carcinoma); experiment: as above
Summary of the method: as §1

[30] = system: CADO-ES1 (Ewing's Sarcoma); experiment: as above
Summary of the method: as §1

[31] = system: NCI-H2122 (Lung Adenocarcinoma); experiment: as above
Summary of the method: as §1

[32] = system: NCI-H650 (Lung Adenocarcinoma); experiment: as above
Summary of the method: as §1
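Throughout, for Bliss excess, mean over the matrix: after 72 h of two-drug dosing.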

| Structure (SMILES) | combination Emax [1] | combination Emax [2] | combination Emax [3] | combination Emax [4] | combination Emax [5] | combination Emax [6] | combination Emax [7] | combination Emax [8] | combination Emax (EW-1 (Ewing's Sarcoma) [9]) | combination Emax [10] | combination Emax (Hey (Ovarian Carcinoma) [11]) | combination Emax [12] | combination Emax [13] | combination Emax [14] | combination Emax [15] | combination Emax [16] | Bliss excess [17] | Bliss excess [18] | Bliss excess [19] | Bliss excess [20] | Bliss excess [21] | Bliss excess [22] | Bliss excess [23] | Bliss excess [24] | Bliss excess (EW-1 (Ewing's Sarcoma) [25]) | Bliss excess [26] | Bliss excess (Hey (Ovarian Carcinoma) [27]) | Bliss excess [28] | Bliss excess [29] | Bliss excess [30] | Bliss excess [31] | Bliss excess [32] |
| --- | --- | --- | --- | --- | --- | --- | --- | --- | --- | --- | --- | --- | --- | --- | --- | --- | --- | --- | --- | --- | --- | --- | --- | --- | --- | --- | --- | --- | --- | --- | --- | --- |
| CC(=O)c1c(C)c2cnc(Nc3ccc(N4CCNCC4)cn3)nc2n(C2CCCC2)c1=O [Palbociclib] + CN(CC[C@H](CSC1=CC=CC=C1)NC2=C(C=C(C=C2)S(=O)(=O)NC(=O)C3=CC=C(C=C3)N4CCC(CC4)[C@H](C5=CC=CC=C5C6=CC=C(C=C6)Cl)O)S(=O)(=O)C(F)(F)F)CCO [AZD4320] (first compound max 10 µM, 7x7, partner max 1 µM) | 1 | 0.348 | 0.974 | 0.56 | 0.934 | 0.915 | 0.224 | 0.985 | 0.884 | 0.61 | 0.357 | 1 | 0.504 | 0.76 | 0.684 | 0.172 | 0.0277 | -0.0748 | 0.0091 | -0.0016 | -0.0452 | -0.0197 | -0.0469 | -0.0551 | -0.0009 | 0.0021 | -0.105 | -0.0064 | -0.0676 | -0.149 | -0.0482 | -0.088 |
| C[C@@H](c1ccc2nccn2c1)n1nnc2ncc(-c3cnn(C)c3)nc21 [Savolitinib] + CN(CC[C@H](CSC1=CC=CC=C1)NC2=C(C=C(C=C2)S(=O)(=O)NC(=O)C3=CC=C(C=C3)N4CCC(CC4)[C@H](C5=CC=CC=C5C6=CC=C(C=C6)Cl)O)S(=O)(=O)C(F)(F)F)CCO [AZD4320] (first compound max 1 µM, 7x7, partner max 1 µM) | 0.967 | 0.205 | 0.276 | 0.278 | 0.511 | 0.857 | 0.309 | 0.998 | 0.574 | 0.216 | 0.125 | 1 | 0.319 | 0.706 | 0.252 | 0.181 | 0.111 | -0.01 | -0.0486 | 0.0389 | -0.0901 | -0.0878 | -0.059 | -0.0104 | -0.0384 | -0.0435 | -0.0466 | -0.0135 | -0.0666 | 0.0075 | -0.0092 | -0.0723 |
| COc1nnc2ccc(N3CCC(c4ccc(OCCN5CCN(C)C(=O)[C@H]5C)cc4)CC3)nn12 [AZD5153] + CN(CC[C@H](CSC1=CC=CC=C1)NC2=C(C=C(C=C2)S(=O)(=O)NC(=O)C3=CC=C(C=C3)N4CCC(CC4)[C@H](C5=CC=CC=C5C6=CC=C(C=C6)Cl)O)S(=O)(=O)C(F)(F)F)CCO [AZD4320] (first compound max 1 µM, 7x7, partner max 1 µM) | 1 | 0.194 | 0.806 | 0.824 | 0.967 | 0.924 | 0.715 | 0.983 | 0.718 | 0.698 | 0.562 | 1 | 0.396 | 0.618 | 0.759 | 0.512 | 0.0349 | -0.0272 | -0.026 | 0.106 | -0.0002 | 0.0381 | 0.0178 | -0.0002 | 0.0591 | 0.0552 | 0.0787 | 0.0324 | 0.0178 | -0.0641 | -0.0537 | 0.0209 |
